Results as given in ChEMBL document CHEMBL5729568, “Ras inhibitors” (2023).

Experiments:
[1] = (§1) Biochemical Assay: A variety of Ras proteins may be inhibited by compounds of the present invention (e.g., K-Ras, N-Ras, H-Ras, and mutants thereof at positions 12, 13 and 61, such as G12C, G12D, G12V, G12S, G13C, G13D, and Q61L, and others described herein). The purpose of this biochemical assay is to measure the ability of test compounds to covalently label nucleotide-loaded K-Ras isoforms. […] The sample is incubated at 25? C. for a time period of up to 24 hours prior to quenching by the addition of 10 uL of 5% Formic Acid. Quenched samples are centrifuged at 15000 rpm for 15 minutes in a benchtop centrifuge before injecting a 10 uL aliquot onto a reverse phase C4 column and eluting into the mass spectrometer with an increasing acetonitrile gradient in the mobile phase. Analysis of raw data may be carried out using Waters MassLynx MS software, with % bound calculated from the deconvoluted protein peaks for labeled and unlabeled K-Ras.
[2] = as §1; remark: listed apart in the source
[3] = as §1; remark: listed apart in the source
[4] = as §1; remark: listed apart in the source
[5] = as §1; remark: listed apart in the source

IC50 [1] | IC50 [2] | IC50 [3] | IC50 [4] | IC50 [5] | Compound
in the range around 0.055 µM | in the range around 0.055 µM | in the range around 0.055 µM | in the range around 0.055 µM | – | C=CC(=O)N1CC[C@H](C(=O)N(C)[C@H](C(=O)N[C@H]2Cc3cc(O)cc(c3)-c3ccc4c(c3)c(c(-c3cnccc3[C@H](C)OC)n4CC)CC(C)(C)COC(=O)[C@@H]3CCCN(N3)C2=O)C(C)C)C1
> 10 µM | in the range around 5.5 µM | > 10 µM | > 10 µM | in the range around 5.5 µM | C=CC(=O)N1CC[C@H](C(=O)N(C)[C@H](C(=O)N[C@H]2Cc3cccc(c3)-c3ccc4c(c3)c(c(-c3cc(C5=CCN(C)CC5)cnc3C(C)OC)n4CC)CC(C)(C)COC(=O)[C@@H]3CCCN(N3)C2=O)C(C)C)C1 (stereo not given in full)
> 10 µM | > 10 µM | > 10 µM | > 10 µM | in the range around 5.5 µM | C=CC(=O)N1CC(OCC(C(=O)N[C@H]2Cc3cccc(c3)-c3ccc4c(c3)c(c(-c3cccnc3C(C)OC)n4CC(F)(F)F)CC(C)(C)COC(=O)[C@@H]3CCCN(N3)C2=O)C(C)C)C1 (stereo not given in full)
> 10 µM | > 10 µM | > 10 µM | > 10 µM | > 10 µM | C=CC(=O)N1CC(OCC(C(=O)N[C@H]2Cc3cc(cc(C(F)F)c3)-c3ccc4c(c3)c(c(-c3cccnc3C(C)OC)n4CC(F)(F)F)CC(C)(C)COC(=O)[C@@H]3CCCN(N3)C2=O)C(C)C)C1 (stereo not given in full)
in the range around 5.5 µM | in the range around 0.55 µM | in the range around 5.5 µM | in the range around 5.5 µM | < 0.01 µM | CCn1c(-c2cccnc2C(C)OC)c2c3cc(ccc31)-c1cccc(c1)C[C@H](NC(=O)[C@H](C(C)C)N(C)C(=O)[C@H]1CCN(C(=O)C#CC3CCO3)C1)C(=O)N1CCC[C@H](N1)C(=O)OCC(C)(C)C2 (stereo not given in full)
– | < 0.01 µM | – | – | < 0.01 µM | CCn1c(-c2cnccc2COC)c2c3cc(ccc31)-c1cc(O)cc(c1)C[C@H](NC(=O)[C@H](C(C)C)N(C)C(=O)[C@H]1CCN(C(=O)C#CCN(C)C)C1)C(=O)N1CCC[C@H](N1)C(=O)OCC(C)(C)C2 (atropisomer, axis not shown)
– | – | – | in the range around 5.5 µM | – | C=CC(=O)N1CC2(CCN([C@H](C(=O)N[C@H]3Cc4cc(O)cc(c4)-c4ccc5c(c4)c(c(-c4ccccc4CCOC)n5CC)CC(C)(C)COC(=O)[C@@H]4CCCN(N4)C3=O)C(C)C)C2=O)C1
– | in the range around 5.5 µM | in the range around 0.55 µM | in the range around 0.55 µM | – | CCn1c(-c2ccccc2CCOC)c2c3cc(ccc31)-c1cc(O)cc(c1)C[C@H](NC(=O)[C@H](C(C)C)N(C)C(=O)[C@H]1CCN(C(=O)/C=C/CN(C)C)C1)C(=O)N1CCC[C@H](N1)C(=O)OCC(C)(C)C2
> 10 µM | > 10 µM | > 10 µM | > 10 µM | in the range around 0.055 µM | CCn1c(-c2cccnc2C(C)OC)c2c3cc(ccc31)-c1cccc(c1)C[C@H](NC(=O)CCOC1CN(C(=O)C#CC(C)(C)N(C)C)C1)C(=O)N1CCC[C@H](N1)C(=O)OCC(C)(C)C2 (stereo not given in full)
– | in the range around 0.55 µM | in the range around 0.55 µM | in the range around 0.55 µM | – | C=CC(=O)N1CC[C@H](C(=O)N(C)[C@H](C(=O)N[C@H]2Cc3cc(O)cc(c3)-c3ccc4c(c3)c(c(-c3ccncc3CCOC)n4CC)CC(C)(C)COC(=O)[C@@H]3CCCN(N3)C2=O)C(C)C)C1
> 10 µM | > 10 µM | > 10 µM | > 10 µM | > 10 µM | C=CC(=O)N1CC[C@H](C(=O)N(C)[C@H](C(=O)N[C@H]2Cc3nc(ns3)-c3ccc4c(c3)c(c(-c3cncnc3[C@H](C)OC)n4CC)CC(C)(C)CC=C[C@@H]3CCCN(N3)C2=O)C(C)C)C1 (stereo in doubt)
– | in the range around 5.5 µM | – | > 10 µM | in the range around 5.5 µM | C=CC(=O)N1CC(OCC(C(=O)N[C@H]2Cc3cccc(c3)-c3ccc4c(c3)c(c(-c3cccnc3C(C)OC)n4CC)CC(C)(C)COC(=O)[C@@H]3CCCN(N3)C2=O)C(C)C)C1 (stereo not given in full)
– | in the range around 0.55 µM | in the range around 5.5 µM | in the range around 5.5 µM | – | C=CC(=O)N1CC[C@]2(CCN(C(=O)N(C)[C@H](C(=O)N[C@@H]3Cc4cc(O)cc(c4)-c4ccc5c(c4)c(c(-c4ccccc4CCOC)n5CC)CC(C)(C)COC(=O)[C@@H]4CCCN(N4)C3=O)C(C)C)C2=O)C1
in the range around 5.5 µM | in the range around 5.5 µM | in the range around 5.5 µM | in the range around 5.5 µM | in the range around 0.55 µM | C=CC(=O)N1CC(OCC(C(=O)N[C@H]2Cc3nc(cs3)-c3ccc4c(c3)c(c(-c3cccnc3C(C)OC)n4CC)CC(C)(C)COC(=O)[C@@H]3CCCN(N3)C2=O)C(C)C)C1 (stereo not given in full)
in the range around 0.55 µM | < 0.01 µM | in the range around 0.55 µM | in the range around 0.55 µM | < 0.01 µM | CCn1c(-c2cccnc2C(C)OC)c2c3cc(ccc31)-c1cc(O)cc(c1)C[C@H](NC(=O)[C@H](C(C)C)N(C)C(=O)c1ncc(NC(=O)/C=C/CN(C)C)n1C)C(=O)N1CCC[C@H](N1)C(=O)OCC(C)(C)C2 (stereo not given in full)
> 10 µM | in the range around 5.5 µM | in the range around 5.5 µM | in the range around 5.5 µM | in the range around 0.055 µM | CCn1c(-c2cccnc2C(C)OC)c2c3cc(ccc31)-c1cccc(c1)C[C@H](NC(=O)[C@H](C(C)C)N(C)C(=O)[C@H]1CCN(C(=O)C#C[C@@H]3COCCN3C)C1)C(=O)N1CCC[C@H](N1)C(=O)OCC(C)(C)C2 (stereo not given in full)
– | in the range around 5.5 µM | in the range around 0.55 µM | in the range around 5.5 µM | – | C=CC(=O)N1CC[C@H](C(=O)N(C)[C@H](C(=O)N[C@H]2Cc3cc(OC(=O)CCC(=O)O)cc(c3)-c3ccc4c(c3)c(c(-c3ccccc3CCOC)n4CC)CC(C)(C)COC(=O)[C@@H]3CCCN(N3)C2=O)C(C)C)C1
in the range around 5.5 µM | in the range around 0.055 µM | in the range around 5.5 µM | in the range around 5.5 µM | in the range around 0.055 µM | C=CC(=O)Nc1cnc(C(=O)N(C)[C@H](C(=O)N[C@H]2Cc3cccc(c3)-c3ccc4c(c3)c(c(-c3cccnc3C(C)OC)n4CC)CC(C)(C)COC(=O)[C@@H]3CCCN(N3)C2=O)C(C)C)n1C (stereo not given in full)
in the range around 5.5 µM | in the range around 0.55 µM | in the range around 5.5 µM | in the range around 5.5 µM | in the range around 0.55 µM | CCn1c(-c2cccnc2C(C)OC)c2c3cc(ccc31)-c1cccc(c1)C[C@H](NC(=O)[C@H](C(C)C)N(C)C(=O)[C@H]1CCN(C(=O)/C=C/CF)C1)C(=O)N1CCC[C@H](N1)C(=O)OCC(C)(C)C2 (stereo not given in full)
– | – | in the range around 5.5 µM | – | – | C=CC(=O)N1CC[C@H](C(=O)N(C)[C@H](C(=O)N[C@H]2Cc3cc(O)cc(c3)-c3cc(F)c4c(c3)c(c(-c3ccccc3CCOC)n4CC)CC(C)(C)COC(=O)[C@@H]3CCCN(N3)C2=O)C(C)C)C1
in the range around 5.5 µM | in the range around 0.55 µM | in the range around 5.5 µM | in the range around 5.5 µM | in the range around 0.055 µM | CCn1c(-c2cccnc2C(C)OC)c2c3cc(ccc31)-c1cccc(c1)C[C@H](NC(=O)[C@H](C(C)C)N(C)C(=O)[C@H]1CCN(C(=O)/C=C/C(F)F)C1)C(=O)N1CCC[C@H](N1)C(=O)OCC(C)(C)C2 (stereo not given in full)
in the range around 5.5 µM | in the range around 5.5 µM | in the range around 5.5 µM | in the range around 5.5 µM | in the range around 0.55 µM | C=CC(=O)N1CC[C@H](C(=O)N(C)[C@H](C(=O)N[C@H]2Cc3cc(O)cc(c3)-c3ccc4c(c3)c(c(-c3cccnc3[C@H](C)OC)n4CC)CC(C)(C)COC(=O)[C@@H]3CCCN(N3)C2=O)C(C)C)C1 (atropisomer M)
– | – | in the range around 5.5 µM | in the range around 5.5 µM | in the range around 5.5 µM | C=CC(=O)C1C[C@@H](C(=O)N(C)[C@H](C(=O)N[C@@H]2Cc3cc(O)cc(c3)-c3cnc4c(c3)c(c(-c3ccccc3CCOC)n4CC)CC(C)(C)COC(=O)[C@@H]3CCCN(N3)C2=O)C(C)C)CN1 (stereo not given in full)
> 10 µM | > 10 µM | > 10 µM | > 10 µM | > 10 µM | C=CC(=O)N1CC(OCC(C(=O)N[C@H]2Cc3cc(cc(C(F)F)c3)-c3ccc4c(c3)c(c(-c3cccnc3C(C)OC)n4CC)CC(C)(C)COC(=O)[C@@H]3CCCN(N3)C2=O)C(C)C)C1 (stereo not given in full)
– | in the range around 5.5 µM | in the range around 0.55 µM | in the range around 0.55 µM | – | C=CC(=O)N1CC[C@H](C(=O)N(C)[C@H](C(=O)N[C@H]2Cc3cc(O)cc(c3)-c3ccc4c(c3)c(c(-c3ccccc3CO)n4CC)CC(C)(C)COC(=O)[C@@H]3CCCN(N3)C2=O)C(C)C)C1

Compound | IC50 [1] | IC50 [2] | IC50 [3] | IC50 [4] | IC50 [5]
C=CC(=O)N1CC[C@H](C(=O)N(C)[C@H](C(=O)N[C@H]2Cc3cc(OC(=O)NCC(=O)O)cc(c3)-c3ccc4c(c3)c(c(-c3ccccc3CCOC)n4CC)CC(C)(C)COC(=O)[C@@H]3CCCN(N3)C2=O)C(C)C)C1 | – | in the range around 0.55 µM | in the range around 5.5 µM | in the range around 5.5 µM | –
CCn1c(-c2cccnc2[C@H](C)OC)c2c3cc(ccc31)-c1cc(O)cc(c1)C[C@H](NC(=O)[C@H](C(C)C)N(C)C(=O)c1nc(NC(=O)/C=C/CN(C)C)cs1)C(=O)N1CCC[C@H](N1)C(=O)OCC(C)(C)C2 | in the range around 5.5 µM | in the range around 0.055 µM | – | in the range around 5.5 µM | –
